In general, IC50 refers to the concentration needed to halve the response being measured. As usually defined, the EC50 is the concentration that produces a half-maximal response.

27 compounds from ChEMBL document CHEMBL3751764, “Synthesis and in vitro antiproliferative activity of novel pyrazolo[3,4-d]pyrimidine derivatives” (Medchemcomm, 2015) can be followed below.

One test deals with MCF7. The experiment in a line: Cytotoxicity against human MCF7 cells after 72 hrs by SRB assay. Format: functional, cell-based. Conditions: MCF7, 72 h.
For test [1], the target named is T1, Vascular endothelial growth factor receptor 2 (Homo sapiens, UniProt P35968). As to the kind of experiment: Inhibition of human VEGFR2 at 10 uM after 20 to 40 mins by liquid scintillation counting analysis in presence of […]. Also noted: scale not given: the % may be the effect or the level left.
Test [2] deals with Cyclin-dependent kinase 1 (Homo sapiens, UniProt P06493). The experiment in a line: Inhibition of CDK1 (unknown origin) using […] as substrate after 60 mins by TR-FRET assay.
The next test has as its target Aurora kinase A (Homo sapiens, UniProt O14965). As to the kind of experiment: Inhibition of Aurora A (unknown origin) using poly(Glu:Tyr) as substrate by ELISA-based method.
Test [3] deals with Mast/stem cell growth factor receptor Kit (Homo sapiens, UniProt P10721). The experiment in a line: Inhibition of N-terminal GST-tagged recombinant kit (unknown origin) using poly(Glu:Tyr) as substrate by ELISA-based method.
The target in test [4] is Aurora kinase A (Homo sapiens) (UniProt O14965). The experiment in a line: Inhibition of human aurora A at 10 uM after 20 to 40 mins by liquid scintillation counting analysis in presence of […].
The target of test [5] is Epidermal growth factor receptor (Homo sapiens) (UniProt P00533). The experiment in a line: Inhibition of human EGFR at 10 uM after 20 to 40 mins by liquid scintillation counting analysis in presence of […].
Test [6] addresses T1, Vascular endothelial growth factor receptor 2. The experiment in a line: Inhibition of VEGFR2 (unknown origin) autophosphorylation after 2 hrs by cell-based assay.
For test [7] the target is unchanged. The experiment in a line: Inhibition of VEGFR2 (unknown origin) using poly(Glu,Ala,Tyr) (6:3:1) as substrate after 20 mins by ELISA. (In an ELISA, binding on a coated surface is turned into a signal by an enzyme label.)
The target is the same in test [8]. As to the kind of experiment: Inhibition of VEGFR2 (unknown origin) using poly(Glu:Tyr) as substrate by ELISA-based method.
Test [9] has as its target Receptor-type tyrosine-protein kinase FLT3 (Homo sapiens, UniProt P36888). As to the kind of experiment: Inhibition of Flt3 (unknown origin) using poly(Glu:Tyr) as substrate by ELISA-based method.
Test [10] can be described thus: Cytotoxicity against human HL60 cells. The class given is functional, cell-based. As to conditions: HL-60.

Active and inactive are the calls of the source. The calls are words filed in the database; no cut-off is given here.

T1 sequence (P35968 whole entry): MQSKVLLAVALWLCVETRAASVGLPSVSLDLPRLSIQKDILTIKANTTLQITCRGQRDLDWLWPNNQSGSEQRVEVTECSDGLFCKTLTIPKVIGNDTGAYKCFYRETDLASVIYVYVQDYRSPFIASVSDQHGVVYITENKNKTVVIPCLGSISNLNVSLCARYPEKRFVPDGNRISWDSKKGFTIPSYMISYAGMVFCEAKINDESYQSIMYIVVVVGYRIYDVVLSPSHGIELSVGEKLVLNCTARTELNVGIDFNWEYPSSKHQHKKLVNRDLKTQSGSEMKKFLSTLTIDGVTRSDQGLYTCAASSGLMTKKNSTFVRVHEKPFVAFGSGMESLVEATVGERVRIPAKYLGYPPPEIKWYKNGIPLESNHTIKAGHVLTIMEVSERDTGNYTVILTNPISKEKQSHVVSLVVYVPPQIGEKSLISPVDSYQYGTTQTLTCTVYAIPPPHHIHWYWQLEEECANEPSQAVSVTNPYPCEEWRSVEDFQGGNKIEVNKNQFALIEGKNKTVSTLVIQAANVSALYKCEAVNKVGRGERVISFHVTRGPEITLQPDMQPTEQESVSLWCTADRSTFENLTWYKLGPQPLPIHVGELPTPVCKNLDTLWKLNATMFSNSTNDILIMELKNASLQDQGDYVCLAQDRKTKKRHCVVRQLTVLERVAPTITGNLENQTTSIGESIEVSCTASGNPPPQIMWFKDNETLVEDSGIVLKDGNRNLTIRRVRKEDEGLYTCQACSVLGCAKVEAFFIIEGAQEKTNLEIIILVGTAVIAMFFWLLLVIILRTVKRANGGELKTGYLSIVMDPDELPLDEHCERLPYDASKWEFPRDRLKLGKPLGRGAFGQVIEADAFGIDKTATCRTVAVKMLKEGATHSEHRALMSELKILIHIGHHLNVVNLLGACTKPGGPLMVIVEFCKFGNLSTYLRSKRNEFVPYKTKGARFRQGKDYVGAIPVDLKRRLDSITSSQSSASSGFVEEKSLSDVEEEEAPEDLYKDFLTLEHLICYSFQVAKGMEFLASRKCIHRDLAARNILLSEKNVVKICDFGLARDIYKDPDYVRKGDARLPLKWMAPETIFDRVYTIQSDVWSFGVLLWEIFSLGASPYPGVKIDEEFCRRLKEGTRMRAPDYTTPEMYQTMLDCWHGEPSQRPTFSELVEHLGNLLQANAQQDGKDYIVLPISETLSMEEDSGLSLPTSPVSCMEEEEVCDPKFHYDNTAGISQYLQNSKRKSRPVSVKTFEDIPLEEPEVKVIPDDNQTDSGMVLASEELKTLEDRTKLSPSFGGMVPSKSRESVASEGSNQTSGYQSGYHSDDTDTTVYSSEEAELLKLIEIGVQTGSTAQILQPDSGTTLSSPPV
Mast/stem cell growth factor receptor Kit, sequence (P10721 whole entry): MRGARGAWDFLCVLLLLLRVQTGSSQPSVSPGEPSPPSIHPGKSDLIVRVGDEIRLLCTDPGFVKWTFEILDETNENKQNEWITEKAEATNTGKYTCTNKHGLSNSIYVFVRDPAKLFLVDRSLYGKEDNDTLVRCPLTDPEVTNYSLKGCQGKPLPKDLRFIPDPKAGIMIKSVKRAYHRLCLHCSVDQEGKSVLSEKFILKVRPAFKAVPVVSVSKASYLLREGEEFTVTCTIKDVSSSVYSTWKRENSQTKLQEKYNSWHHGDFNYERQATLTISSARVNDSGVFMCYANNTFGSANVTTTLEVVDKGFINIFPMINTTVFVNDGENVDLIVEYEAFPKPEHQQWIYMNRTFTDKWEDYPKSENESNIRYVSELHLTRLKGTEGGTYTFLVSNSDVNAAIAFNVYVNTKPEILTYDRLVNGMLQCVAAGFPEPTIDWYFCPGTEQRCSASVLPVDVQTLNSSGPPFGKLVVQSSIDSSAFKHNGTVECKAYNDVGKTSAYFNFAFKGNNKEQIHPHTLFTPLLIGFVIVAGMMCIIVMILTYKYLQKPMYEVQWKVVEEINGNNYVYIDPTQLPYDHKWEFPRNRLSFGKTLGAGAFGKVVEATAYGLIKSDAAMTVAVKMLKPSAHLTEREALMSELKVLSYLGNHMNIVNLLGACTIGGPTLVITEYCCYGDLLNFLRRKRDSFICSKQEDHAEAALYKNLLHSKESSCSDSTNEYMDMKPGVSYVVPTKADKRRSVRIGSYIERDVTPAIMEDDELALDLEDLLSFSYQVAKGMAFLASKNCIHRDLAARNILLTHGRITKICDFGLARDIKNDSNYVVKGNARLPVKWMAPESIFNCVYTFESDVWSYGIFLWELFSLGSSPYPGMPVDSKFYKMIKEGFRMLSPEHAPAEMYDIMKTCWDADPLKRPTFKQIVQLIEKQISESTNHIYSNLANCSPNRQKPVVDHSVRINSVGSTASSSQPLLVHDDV
Epidermal growth factor receptor (Homo sapiens), sequence (P00533 whole entry): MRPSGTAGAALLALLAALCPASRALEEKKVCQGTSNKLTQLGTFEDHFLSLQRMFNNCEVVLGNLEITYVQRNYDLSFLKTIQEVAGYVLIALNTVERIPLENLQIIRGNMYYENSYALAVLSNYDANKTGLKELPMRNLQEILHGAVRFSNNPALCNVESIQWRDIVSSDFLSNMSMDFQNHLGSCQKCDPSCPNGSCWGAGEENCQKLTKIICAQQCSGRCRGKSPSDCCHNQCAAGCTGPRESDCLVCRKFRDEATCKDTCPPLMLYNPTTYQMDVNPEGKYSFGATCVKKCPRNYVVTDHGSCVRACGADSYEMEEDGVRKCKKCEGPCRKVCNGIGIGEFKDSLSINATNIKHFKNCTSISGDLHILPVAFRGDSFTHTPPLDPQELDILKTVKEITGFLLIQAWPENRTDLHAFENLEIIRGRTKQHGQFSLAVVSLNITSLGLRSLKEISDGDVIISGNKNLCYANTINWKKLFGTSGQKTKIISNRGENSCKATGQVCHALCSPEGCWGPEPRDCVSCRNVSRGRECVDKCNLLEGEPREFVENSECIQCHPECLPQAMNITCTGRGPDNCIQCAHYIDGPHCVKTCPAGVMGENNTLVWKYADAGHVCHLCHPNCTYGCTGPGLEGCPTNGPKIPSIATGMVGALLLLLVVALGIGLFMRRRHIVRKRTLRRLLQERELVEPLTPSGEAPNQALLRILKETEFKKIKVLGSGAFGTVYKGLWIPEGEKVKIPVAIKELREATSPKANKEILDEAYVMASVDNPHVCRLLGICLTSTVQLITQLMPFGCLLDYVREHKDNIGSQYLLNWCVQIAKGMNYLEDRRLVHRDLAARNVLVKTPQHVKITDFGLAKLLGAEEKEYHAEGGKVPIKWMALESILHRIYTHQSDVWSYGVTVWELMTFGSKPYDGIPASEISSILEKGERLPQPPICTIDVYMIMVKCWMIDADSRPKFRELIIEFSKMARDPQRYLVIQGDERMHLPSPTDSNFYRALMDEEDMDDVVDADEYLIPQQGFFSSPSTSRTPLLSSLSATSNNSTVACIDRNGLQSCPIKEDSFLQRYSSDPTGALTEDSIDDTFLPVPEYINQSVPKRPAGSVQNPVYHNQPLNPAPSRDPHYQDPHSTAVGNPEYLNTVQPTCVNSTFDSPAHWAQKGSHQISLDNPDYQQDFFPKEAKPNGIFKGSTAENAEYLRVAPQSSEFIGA
Receptor-type tyrosine-protein kinase FLT3, sequence (P36888 whole entry): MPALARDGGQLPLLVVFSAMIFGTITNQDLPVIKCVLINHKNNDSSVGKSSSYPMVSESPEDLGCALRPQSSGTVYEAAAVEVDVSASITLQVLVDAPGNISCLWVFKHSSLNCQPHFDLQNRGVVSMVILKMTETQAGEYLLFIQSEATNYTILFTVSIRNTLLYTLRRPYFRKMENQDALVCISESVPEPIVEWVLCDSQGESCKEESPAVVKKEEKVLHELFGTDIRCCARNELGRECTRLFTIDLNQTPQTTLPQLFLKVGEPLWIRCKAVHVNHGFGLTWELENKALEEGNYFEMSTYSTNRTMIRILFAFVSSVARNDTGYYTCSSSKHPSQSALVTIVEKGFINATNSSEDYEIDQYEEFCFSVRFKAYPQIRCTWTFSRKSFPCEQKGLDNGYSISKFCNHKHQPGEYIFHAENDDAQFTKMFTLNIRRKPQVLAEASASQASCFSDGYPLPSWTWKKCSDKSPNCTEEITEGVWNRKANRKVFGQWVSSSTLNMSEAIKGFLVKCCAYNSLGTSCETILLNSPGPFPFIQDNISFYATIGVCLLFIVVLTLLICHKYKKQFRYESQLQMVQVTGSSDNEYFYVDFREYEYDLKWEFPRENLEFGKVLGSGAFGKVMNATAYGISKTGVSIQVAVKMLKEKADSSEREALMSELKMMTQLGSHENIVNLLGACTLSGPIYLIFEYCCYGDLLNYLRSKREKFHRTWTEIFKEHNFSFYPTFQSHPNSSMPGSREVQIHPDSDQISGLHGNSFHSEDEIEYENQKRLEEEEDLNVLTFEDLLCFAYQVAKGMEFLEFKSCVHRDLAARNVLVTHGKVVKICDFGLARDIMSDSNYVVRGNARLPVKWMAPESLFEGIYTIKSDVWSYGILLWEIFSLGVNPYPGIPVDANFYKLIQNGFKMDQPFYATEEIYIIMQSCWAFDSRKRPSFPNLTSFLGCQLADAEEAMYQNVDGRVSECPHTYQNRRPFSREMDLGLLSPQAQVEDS
Aurora kinase A, sequence (O14965 whole entry): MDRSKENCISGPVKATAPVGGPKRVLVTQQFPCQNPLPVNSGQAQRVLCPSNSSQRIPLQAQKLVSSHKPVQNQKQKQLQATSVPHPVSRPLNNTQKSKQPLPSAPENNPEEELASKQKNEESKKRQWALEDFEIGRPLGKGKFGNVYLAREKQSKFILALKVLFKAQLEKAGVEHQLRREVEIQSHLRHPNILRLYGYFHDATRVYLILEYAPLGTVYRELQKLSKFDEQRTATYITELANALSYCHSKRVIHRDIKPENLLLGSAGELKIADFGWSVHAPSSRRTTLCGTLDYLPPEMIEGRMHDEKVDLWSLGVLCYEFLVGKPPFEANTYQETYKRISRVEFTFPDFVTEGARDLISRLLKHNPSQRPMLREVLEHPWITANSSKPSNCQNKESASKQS
Aurora kinase A (Homo sapiens), sequence (O14965 whole entry): as above

As to `Cc1ccccc1NC(=O)Nc1ccc(Nc2ncnc3c2cnn3-c2ccc(Cl)cc2)cc1`, in the test with MCF7, inhibition was half-maximal at 3.15 µM (IC50). Moreover, in test [1], the Activity came out at 3%.

Compound `O=c1sc2cc(Nc3ncnc4c3cnn4-c3ccc(Cl)cc3)ccc2n1Cc1ccc(Cl)cc1Cl` gave an IC50 with MCF7 greater than 100 µM. Moreover, the Activity in [1] came out at 1%.

In the case of `CC(C)n1ncc2cnc(Nc3cc(C(N)=O)n(C)c3)nc21`, the figures for the IC50 (in test [2]; at Aurora kinase A) were 0.024 µM and 0.017 µM, respectively.

In the test with MCF7, `O=C(Nc1ccc(Nc2ncnc3c2cnn3-c2ccc(Cl)cc2)cc1)Nc1ccccc1Cl` registered an IC50 of 9.05 µM. Further, in test [1], the Activity came to 1%.

Take `O=C(Nc1ccc(OC(F)(F)F)cc1)c1sccc1NCc1ccnc2ccccc12` [OSI-930]: in test [3], the IC50 is 0.08 µM.

With `O=C(Nc1ccc(Nc2ncnc3c2cnn3-c2ccccc2)cc1)Nc1cccc(Cl)c1`, half-maximal inhibition with MCF7 (IC50) required 4.2 µM. In addition, in [1], the Activity was -3%. In addition, the inhibition result in test [4] is “inactive”.

For `O=C(Nc1cccc(Cl)c1)c1ccc(Nc2ncnc3c2cnn3-c2ccccc2)cc1`, the IC50 in the test on MCF7 came to 1.12 µM. Further, the Activity in test [1] amounted to 2%. For the same compound, in test [5], the inhibition result is “inactive”.

`O=c1sc2cc(Nc3ncnc4c3cnn4-c3ccccc3)ccc2n1Cc1ccc(Cl)cc1Cl` came in with an IC50 in the test with MCF7 of 44 µM. For the same compound, the Activity in [1] is -5%.

`O=c1sc2cc(Nc3ncnc4c3cnn4-c3ccccc3)ccc2n1Cc1cccc(Br)c1` gave an IC50 in the test on MCF7 of 46.1 µM. Further, the Activity in test [1] was 2%.

In the case of `O=C(Nc1ccc(Cl)c(C(F)(F)F)c1)c1ccc(Nc2ncnc3c2cnn3-c2ccc(Cl)cc2)cc1`, the IC50 in the test with MCF7 came out at 4.92 µM.

As to `O=C(Nc1ccccc1)Nc1ccc(Oc2ncnc3c2cnn3-c2ccc(Cl)cc2)cc1`, in the test on MCF7, the midpoint of inhibition, the IC50, lay at 82.5 µM. Also, the Activity in test [1] is -3%.

`O=C(Nc1ccc(Cl)c(C(F)(F)F)c1)c1ccc(Nc2ncnc3c2cnn3-c2ccccc2)cc1` came in with an IC50 with MCF7 of 75.9 µM.

Consider `Cc1cc2nc(Nc3ncnc4c3cnn4-c3ccccc3)sc2cc1C`, for which the IC50 with MCF7 is greater than 100 µM.

`Cc1ccc(C(=O)Nc2cccc(C(F)(F)F)c2)cc1Nc1nc(-c2cccnc2)nc2c1cnn2C` came in with an EC50 in test [6] of 4.2 µM.

`Cc1cc(F)c(Nc2ncnc3cc(OCc4ccccc4)ccc23)cc1O` had an IC50 in [7] of less than 0.002 µM.

Consider `O=C(Nc1ccc(Nc2ncnc3c2cnn3-c2ccccc2)cc1)Nc1cccc(Br)c1`, for which the IC50 in the test on MCF7 came to 36.3 µM. In addition, the Activity in test [1] is -3%.

In the case of `O=C(Nc1ccc(Nc2ncnc3c2cnn3-c2ccccc2)cc1)Nc1ccccc1Cl`, the IC50 in the test with MCF7 came to 55.1 µM. In addition, in test [1], the Activity is -5%.

Compound `O=c1sc2cc(Nc3ncnc4c3cnn4-c3ccccc3)ccc2n1Cc1ccc(Cl)c(Cl)c1` showed an IC50 in the test with MCF7 of 1.6 µM. Moreover, the Activity in test [1] came to 1%.

In turn, `Clc1ccc2nc(Nc3ncnc4c3cnn4-c3ccccc3)sc2c1` gave an IC50 with MCF7 greater than 100 µM.

`O=C(Nc1ccccc1Cl)c1ccc(Nc2ncnc3c2cnn3-c2ccc(Cl)cc2)cc1` displayed an IC50 with MCF7 greater than 100 µM. Moreover, in test [1], the Activity is -8%.

`O=C(NC1CCCCC1)c1ccc(Nc2ncnc3c2cnn3-c2ccc(Cl)cc2)cc1` gave an IC50 in the test on MCF7 greater than 100 µM. Also, in test [1], the Activity is -4%.

For the compound `O=C(Nc1ccc(Oc2ncnc3[nH]ncc23)cc1)Nc1ccc(Cl)c(C(F)(F)F)c1`, the concentration for half-maximal inhibition (IC50) in [8] is 2.25 µM; in test [9], 0.004 µM.

Consider `Clc1ccc(COc2ccc(Nc3ncnc4c3cnn4-c3ccc(Cl)cc3)cc2)cc1`, for which the IC50 with MCF7 was greater than 100 µM.

Consider `O=C(Nc1ccccc1)Nc1ccc(Oc2ncnc3c2cnn3-c2ccccc2)cc1`, for which, in the test with MCF7, the half-inhibitory concentration (IC50) was greater than 100 µM. In addition, in test [1], the Activity is 1%.

The compound `N=c1c2cnn(-c3ccccc3)c2ncn1-c1ccc(-c2ccc(C(F)(F)F)cc2)s1` showed an IC50 in [10] of 0.21 µM.

`Clc1ccc(-n2ncc3c(Nc4nc5ccc(Cl)cc5s4)ncnc32)cc1` registered an IC50 in the test on MCF7 of 85.6 µM.

As to `Clc1ccc(COc2ccc(Nc3ncnc4c3cnn4-c3ccccc3)cc2)cc1`, the IC50 in the test on MCF7 was 4.36 µM.
